These results are taken from patent publication US20030215391A1, “Fluorescent agents for real-time measurement of organ function” (priority 2003, published 2003).

For series [1] the following is noted: (Aime, 1995); cited from earlier work.
Series [2] in a line: Solubility in aqueous media at physiological pH. The series is classed as physicochemical. An excerpt: where R may be furoic acid, nicotinic acid, picolinic acid, or some other substituted aromatic acid. The subsituted tetrazacyclododecane (STACD) is produced by reacting the amine groups with a brominated acid. 6-Bromo-picolinic acid, 5-bromo-nicotinic acid, and 5-bromo-furoic acid are all appropriate for prepararing a STACD. However, not all of these molecules are soluble in aqueous media at physiological pH. For example, while the tetrafuroic acid derivative is soluble in physiological fluids, the tetranicotinic acid derivative is not. The derivative should be combined with a solubility enhancer, for example, […], to form a salt which is soluble at pH 7. Other solubility enhancers may also be employed to modify the solubility of the STACD complex.
Magnetic Resonance Imaging Contrast Agent: The molecules of the invention, especially TABFTA, STACD, and their derivatives, can also be used as contrast agents for magnetic resonance imaging (MRI). When chelated with lanthanide ions such as gadolinium (Gd^3+) or […], the resulting paramagnetic compound enhances the relaxation of hydrogen protons, increasing signal intensities in MRI imaging (Bousquet, 1988). The increased signal increases the signal-to-noise ratio, reducing imaging time. In addition, the contrast agent may increase specificity in diagnosis. […]

For series [3] the following is noted: chelate with europium; previous studies (Hemmila, 1984); cited from earlier work.
Series [4] in a line: Fluorometric analysis (excitation and emission spectra). The following applies: FIG. 4. The series is classed as physicochemical. The protocol:
For the synthesis of a nile blue-DTPA conjugate, 0.1 g of DTPA dianhydride (ccDPTA) was dissolved in 6 ml of dimethyl sulfoxide (DMSO) in a round bottom flask. Ninety mg of nile blue were dissolved in DMSO and 36 μL of triethyl amine were added, turning the solution purple. The nile blue solution was added drop wise to the solution of ccDTPA while stirring. The solution turned blue. Thirty-eight μL of […] (TEA) were added to the final mixture, turning the solution purple. After mixing, the mixture was heated to 60° C. and stirred for 2 hours. The reaction mixture was then loaded onto a silica gel column and eluted with acetone:ethylacetate. The fractions corresponding to the nile blue-DTPA conjugate were pooled and evaporated, yielding a magenta colored oil. The oil was rechromatographed on a second silica gel column using acetone as eluant. The nile blue-DTPA conjugated fractions were pooled and rotate-evaporated to give a magenta colored oil. […]
The only group of chelating agents known to produce highly soluble and stable lanthanide chelates are the polyamino polyacetic acid analogs. […] The simplest initial approach was to study the fluorescence characteristics of the chelate between Eu and other already commercially available polyaminopoly bis (2-aminoethyl ether) acetic acids. […]

For series [5] the following is noted: (Bousquet, 1988); cited from earlier work.

`O=C(O)CN(CCN(CC(=O)O)CC(=O)O)CCN(CC(=O)O)CC(=O)O` [DTPA, diethylenetriaminepentaacetic acid]: the “affinity constant (k)” value in series [1] is listed as 23. “tetraazabycyclofurantetraacetate [TABFTA]”: the water solubility entry in series [2] was “water-soluble”. For `O=C(O)CN(CCN(CC(=O)O)CC(=O)O)CC(=O)O` [EDTA], the “fluorescence of the chelate” value in series [3] is “essentially non-fluorescent”. Regarding `CC[N+](CC)=c1ccc2nc3c(cc(N)c4ccccc43)oc-2c1` [nile blue], the emission fluorescence wavelength in series [4] is recorded as 695 nm. As for `O=C([O-])CN1CCN(CC(=O)[O-])CCN(CC(=O)O)CCN(CC(=O)[O-])CC1.[Gd+3]` [chelates of DOTA and gadolinium], in series [5], the “distribution after intravenous injection” value was “extracellular space distribution” and the “excretion after intravenous injection” value is listed as “excreted only by glomerular filtration”.
